Consider 36 compounds from PubChem BioAssay (NCI).

The structures appear in SMILES notation. “And” between values parts separate entries of the source, which are not always exact repeats. Equal values may be shown once.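 Compound exposure: 48 hours, 5 concentrations, 96-well plates. GI50 = concentration required for 50% inhibition of growth. TGI marks complete inhibition of growth.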

The test concerns MDA-MB-468 breast. The test is described as follows: NCI anticancer screen, dose series, 48 h.
With `COc1cccc2c(=O)c3c(sc12)c(N1CCNCC1)nc1ccccc13`, the GI50 is 1660 nM and the TGI was 3300 nM.

On to `Cc1[nH]c2ccccc2c(=O)c1CC=C(Cl)Cl`, for which the GI50 was 18800 nM and the TGI was > 100000 nM.

For the compound `COC(=O)[C@H]1[C@@H](O)[C@@]2(O)c3c(OC)cc(OC)cc3O[C@@]2(c2ccc(OC)cc2)[C@@H]1c1ccccc1`, the GI50 was 7.83 nM and the TGI came to 116 nM.

Take `O=S(=O)(Nc1cc(Sc2cccc3cccnc23)c(O)c2ccccc12)c1ccccc1`: the GI50 was 1290 nM and the TGI was 3200 nM.

In the case of `COc1ccc(/C=N/NC(=O)c2[nH]c3ccc(Br)cc3c2-c2ccccc2)o1`, the GI50 was 58.8 nM and the TGI was determined as 3360 nM.

`Cc1ncc(CCCN(C)C)cc1Nc1ncc2c(n1)-c1ccc(C(F)(F)F)cc1NC(=S)C2`: the GI50 is < 21.2 nM and the TGI came to 1580 nM.

Turning to `Nc1ccc(-c2nc3ccc(Cc4ccc5nc(-c6ccc(N)cc6)[nH]c5c4)cc3[nH]2)cc1`, the GI50 is 1470 nM and the TGI was determined as 2900 nM.

With `COc1cc2[nH]c(C(=O)c3cc(OC)c(OC)c(OC)c3)c(N)c2cc1C#CC1CC1`, the GI50 was 2080 nM and the TGI turned out to be 8280 nM.

Consider `COc1ccc(/C=C/C(=O)C(CC2CCC2)C(=O)/C=C/c2ccc(OC)c(OC)c2)cc1OC`, for which the GI50 is 1590 nM and the TGI came out at 3690 nM.

As to `O=C(/C=C\c1ccc(NCc2ccc(C(=O)O)cc2)cc1)CCl`, the GI50 is 7360 nM and the TGI was found to be 23800 nM.

Consider `CCCCCCCCCCCCCCCCCCOc1ccccc1CC(=O)OCC[N+]1(C)CCCC1`, for which the GI50 is 1700 nM and the TGI worked out at 4510 nM.

With `CN(C)CCN1C(=O)c2ccc3c4c(ccc(c24)C1=O)C(=O)N(CCN=C=S)C3=O`, the GI50 is 26.3 nM and the TGI was found to be 101 nM.

`O=c1cc(NC2CCN(CCCc3ccccc3)CC2)c2cc(Cl)ccc2o1`: the GI50 is 5820 nM and the TGI came to 21800 nM.

`COc1ccc(-c2nn(-c3ccc(NC(=O)Nc4cc(C(F)(F)F)cc(C(F)(F)F)c4)cc3)cc2-c2ccncc2)cc1Cl`: the GI50 was 1800 nM and the TGI is 6000 nM.

On to `Cc1ccc(-c2nc3ccc(Cl)cc3c(=O)n2N2C(=O)CSC2c2ccccc2Cl)cc1` (configuration not stated), for which the GI50 is 57600 nM and the TGI is > 100000 nM.

In the case of `CCOc1cc(C(C)(C)C)ccc1C1=N[C@@](C)(c2ccc(Cl)cc2)[C@@](C)(c2ccc(Cl)cc2)N1C(=O)N1CCN(CCCS(C)(=O)=O)CC1`, the GI50 was 2530 nM and the TGI turned out to be 7920 nM.

Consider `COc1cc(C(=O)c2cc(C)c3[nH]c4ccc(C)cc4c3c2C)cc(OC)c1OC`, for which the GI50 is < 10 nM and the TGI turned out to be 3680 nM.

Regarding `CC/C=C\C[C@H]1C/C=C2/C(=O)C=C[C@@H]2C/C=C\CCCC(=O)O1`, the GI50 is 854 nM and the TGI came out at 2730 nM.

Regarding `Cn1c(=O)c(Cc2ccccc2F)cc2cnc(NC3CCOCC3)nc21`, the GI50 is > 25000 nM and the TGI is > 25000 nM.

On to `C[C@H](O)C(=O)N1CCC(CCn2c(Sc3cc4c(cc3Br)OCO4)nc3c(N)ncnc32)CC1`, for which the GI50 was 482 nM and the TGI was found to be 2920 nM.

In the case of `Cc1ccc2[nH]c(O)c(N=Nc3ccc(S(N)(=O)=O)cc3)c2c1`, the GI50 was 6670 nM and the TGI is > 25000 nM.

Consider `COc1cc(/C=C/c2cc(/C=C/c3ccc(O)c(OC)c3)n(C(=O)Nc3ccc(C)cc3C)n2)ccc1O`, for which the GI50 was 242 nM and the TGI was 750 nM.

With `CCc1nc(C(N)=O)c(Nc2ccc(N3CCC(N4CCN(C)CC4)CC3)c(OC)c2)nc1NC1CCOCC1`, the GI50 was 12200 nM and 14000 nM; the TGI was 27700 nM and > 2370 nM and 31800 nM.

In the case of `CC(C)C[C@H](NC(=O)/C=C/Cn1ccc2ccccc2c1=O)B(O)O`, the GI50 was 681 nM and the TGI came to 4710 nM.

Consider `O=C1Nc2ccc(F)cc2/C1=C/c1ccc[nH]1`, for which the GI50 was 203 nM and the TGI amounted to 1500 nM.

`CC1=C[C@H]2c3c(c(O)c(O)c4oc(-c5ccccc5)cc(=O)c34)[C@H](c3cc(O)c(O)c4oc(-c5ccccc5)cc(=O)c34)[C@H]2C(C)(C)C1`: the GI50 is 1380 nM and the TGI turned out to be 4760 nM.

In the case of `CC1(C)[C@@H](OC(N)=O)[C@H]2O[C@H]2[C@]2(C=O)[C@H]3CC[C@]4(C)[C@@H](c5ccc(=O)oc5)[C@@H](Cl)C[C@]4(O)C3=CC[C@@H]12`, the GI50 was 6.2 nM and the TGI came out at 17.8 nM.

As for `Nc1nc(F)nc2c1ncn2C1OC(CO)C(O)C1O` (configuration not stated), the GI50 was > 85600 nM and the TGI is > 100000 nM.

As for `CCn1c(SCc2ccc(C)cc2)nnc1-c1nn(-c2ccc(Cl)cc2Cl)c(-c2ccc(Cl)cc2)c1C`, the GI50 was 623 nM and the TGI came to 10600 nM.

Regarding `COc1ccc(CCN2COc3c([C@@H](C)CCC=C(C)C)ccc(C)c3C2)cc1OC`, the GI50 was 1230 nM and the TGI was 2950 nM.

In the case of `CN(C)C(=O)[C@H](O)[C@H](Cc1ccccc1)NC(=O)c1cc2cc(Cl)ccc2[nH]1`, the GI50 is 20100 nM and the TGI worked out at 77600 nM.

For the compound `CCOC(=O)c1sc(NCC(=O)Nc2cccc([N+](=O)[O-])c2)c(C(=O)OCC)c1C`, the GI50 was 670 nM and the TGI is 2230 nM.

Turning to `Nc1ccc2cc3ccc(N)cc3nc2c1`, the GI50 is 531 nM and the TGI amounted to 2220 nM.

Take `C#CCOc1cccc(-c2nc(N)nc(Nc3ccccc3SSc3ccccc3Nc3nc(N)nc(-c4cccc(OCC#C)c4)n3)n2)c1`: the GI50 was > 33300 nM and the TGI is > 33300 nM.

For `CC(C)(C[C@H]1CN(S(=O)(=O)c2cccc(C(F)(F)F)c2)c2cc(-c3cc(F)cc(OC(F)F)c3)ccc2O1)C(=O)O`, the GI50 was 3410 nM and the TGI was found to be 25100 nM.

Consider `COc1ccc(C(=O)COc2ccc(/C=C3\COc4ccc(OC)cc4C3=O)cc2)cc1`, for which the GI50 was 18000 nM and the TGI came to 88200 nM.
